ChEMBL document CHEMBL1143013, “4-aryl-5-(4-piperidyl)-3-isoxazolol GABAA antagonists: synthesis, pharmacology, and structure-activity relationships” (J Med Chem, 2007)
Each block holds one molecule with its values, some of them ahead of it. Active and inactive are the calls of the source. No cut-off for these calls is given here.

Tests used:
[1] = target: T1, GABA-A receptor; alpha-1/beta-3/gamma-2 (Homo sapiens, UniProt P14867+P18507+P28472); assay: Antagonist activity at human GABAA alpha-1-beta-3-gamma-2S expressed in Xenopus oocytes by two-electrode voltage-clamp electrophysiology; type: functional, cell-based, Oocyte
T1 sequence (P14867 whole entry): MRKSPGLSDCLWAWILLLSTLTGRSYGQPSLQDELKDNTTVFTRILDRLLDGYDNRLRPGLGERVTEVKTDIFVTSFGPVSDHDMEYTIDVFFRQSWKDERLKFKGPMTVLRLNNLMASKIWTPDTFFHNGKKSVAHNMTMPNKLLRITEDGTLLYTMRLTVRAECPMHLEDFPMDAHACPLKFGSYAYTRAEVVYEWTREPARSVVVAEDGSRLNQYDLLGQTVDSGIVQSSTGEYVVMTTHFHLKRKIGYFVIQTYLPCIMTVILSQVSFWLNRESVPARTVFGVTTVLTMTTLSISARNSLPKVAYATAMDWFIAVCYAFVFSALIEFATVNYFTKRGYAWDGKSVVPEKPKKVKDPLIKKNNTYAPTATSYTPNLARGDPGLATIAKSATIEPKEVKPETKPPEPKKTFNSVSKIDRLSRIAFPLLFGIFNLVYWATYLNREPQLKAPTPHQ
T1 sequence (P18507 whole entry): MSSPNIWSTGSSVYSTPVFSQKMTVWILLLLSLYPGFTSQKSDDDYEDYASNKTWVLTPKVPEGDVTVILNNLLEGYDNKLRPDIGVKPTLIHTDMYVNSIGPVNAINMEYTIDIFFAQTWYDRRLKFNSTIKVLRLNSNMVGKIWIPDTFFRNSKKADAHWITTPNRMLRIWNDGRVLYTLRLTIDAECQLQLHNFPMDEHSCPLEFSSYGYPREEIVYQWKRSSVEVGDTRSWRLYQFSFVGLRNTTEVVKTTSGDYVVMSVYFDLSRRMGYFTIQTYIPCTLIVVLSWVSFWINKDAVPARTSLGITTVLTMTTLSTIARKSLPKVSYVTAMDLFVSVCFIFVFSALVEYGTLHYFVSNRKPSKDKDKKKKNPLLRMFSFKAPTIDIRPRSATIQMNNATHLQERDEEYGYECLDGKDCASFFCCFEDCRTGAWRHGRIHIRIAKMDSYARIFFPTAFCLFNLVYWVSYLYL
T1 sequence (P28472 whole entry): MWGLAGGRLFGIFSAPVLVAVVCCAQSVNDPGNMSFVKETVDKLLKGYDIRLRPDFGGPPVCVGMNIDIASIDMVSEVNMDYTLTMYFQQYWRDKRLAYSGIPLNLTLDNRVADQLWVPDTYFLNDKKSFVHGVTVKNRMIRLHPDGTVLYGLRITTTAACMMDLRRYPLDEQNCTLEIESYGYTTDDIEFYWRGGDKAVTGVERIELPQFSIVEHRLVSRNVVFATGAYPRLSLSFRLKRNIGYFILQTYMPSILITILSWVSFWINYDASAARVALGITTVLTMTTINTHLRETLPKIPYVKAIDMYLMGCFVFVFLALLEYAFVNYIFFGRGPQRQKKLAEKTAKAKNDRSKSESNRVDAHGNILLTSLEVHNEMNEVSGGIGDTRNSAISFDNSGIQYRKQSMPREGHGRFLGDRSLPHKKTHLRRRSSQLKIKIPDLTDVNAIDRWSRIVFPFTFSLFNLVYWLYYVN

[2] = Displacement of [3H]muscimol from GABAA receptor in Sprague-Dawley rat brain synaptic membrane
[3] = species: Rattus norvegicus; assay: Displacement of [3H]GABA from GABAB receptor in Sprague-Dawley rat brain synaptic membrane at 100 uM

SMILES: O=c1[nH]oc(C2CCNCC2)c1-c1cccc2ccccc12
Ki ([1]; read-out: Ki): 334 nM

SMILES: Oc1cc(C2CCNCC2)on1
Activity [3]: inactive

SMILES: Br.O=[N+]([O-])c1cccc(-c2c(O)noc2C2CCNCC2)c1
Ki [2]: 234 nM | Log Ki [2]: -6.63 | Ki ([1]; read-out: Ki): 138 nM | Activity [3]: inactive

SMILES: Br.Br.Nc1cccc(-c2c(O)noc2C2CCNCC2)c1
Ki [2]: 84 nM | Log Ki [2]: -7.07 | Ki ([1]; read-out: Ki): 59 nM | Activity [3]: inactive

SMILES: Oc1noc(C2CCNCC2)c1-c1ccccc1
Ki [2]: 220 nM | Ki ([1]; read-out: Ki): 159 nM | Activity [3]: inactive

SMILES: Br.CC(C)(C)c1ccc(-c2c(O)noc2C2CCNCC2)cc1
Ki [2]: 6980 nM | Log Ki [2]: -5.16 | Ki ([1]; read-out: Ki): 257 nM | Activity [3]: inactive

SMILES: Oc1noc(C2CCNCC2)c1-c1cccc2ccccc12
Ki [2]: 820 nM | Activity [3]: inactive

SMILES: Br.Oc1noc(C2CCNCC2)c1-c1cc(Cl)cc(Cl)c1
Ki [2]: 77 nM | Log Ki [2]: -7.11 | Ki ([1]; read-out: Ki): 68 nM | Activity [3]: inactive

SMILES: Br.Oc1noc(C2CCNCC2)c1-c1cccnc1
Ki [2]: 955 nM | Log Ki [2]: -6.02 | Ki ([1]; read-out: Ki): 427 nM | Ki ([1]; read-out: Log Ki (converted)): 479 nM | Activity [3]: inactive

SMILES: Br.Oc1noc(C2CCNCC2)c1-c1ccc(Cl)cc1
Ki [2]: 2420 nM | Log Ki [2]: -5.62 | Ki ([1]; read-out: Ki): 204 nM | Activity [3]: inactive

SMILES: Br.Oc1noc(C2CCNCC2)c1-c1ccsc1
Ki [2]: 317 nM | Log Ki [2]: -6.5 | Ki ([1]; read-out: Ki): 76 nM | Activity [3]: inactive

SMILES: Br.Oc1noc(C2CCNCC2)c1-c1ccccc1Cl
Ki [2]: 851 nM | Log Ki [2]: -6.07 | Ki ([1]; read-out: Ki): 129 nM | Activity [3]: inactive

SMILES: Br.Oc1noc(C2CCNCC2)c1-c1ccc(-c2ccccc2)cc1
Ki [2]: 195 nM | Log Ki [2]: -6.71 | Ki ([1]; read-out: Ki): 71 nM | Activity [3]: inactive

Continued by falling Ki [2], values first:

Ki [2]: 70 nM | Log Ki [2]: -7.15 | Ki ([1]; read-out: Ki): 8 nM | Activity [3]: inactive
SMILES: Br.Oc1noc(C2CCNCC2)c1-c1ccc(Oc2ccccc2)cc1

Ki [2]: 58 nM | Log Ki [2]: -7.24 | Ki ([1]; read-out: Ki): 48 nM | Activity [3]: inactive
SMILES: Br.Oc1noc(C2CCNCC2)c1-c1cccc(Cl)c1

Ki [2]: 49 nM | Activity [3]: inactive
SMILES: Oc1noc(C2CCNCC2)c1Cc1ccc2ccccc2c1

Ki [2]: 36 nM | Ki ([1]; read-out: Ki): 141 nM | Activity [3]: inactive
SMILES: Oc1noc(C2CCNCC2)c1-c1ccc2ccccc2c1

Ki [2]: 25 nM | Log Ki [2]: -7.61 | Ki ([1]; read-out: Ki): 9 nM | Activity [3]: inactive
SMILES: Br.Oc1noc(C2CCNCC2)c1-c1csc(-c2ccccc2)c1

Ki [2]: 21 nM | Ki ([1]; read-out: Ki): 198 nM | Activity [3]: inactive
SMILES: Oc1noc(C2CCNCC2)c1Cc1ccc2ccccc2c1-c1ccccc1

Ki [2]: 10 nM | Log Ki [2]: -8 | Ki ([1]; read-out: Ki): 10 nM | Activity [3]: inactive
SMILES: Br.Oc1noc(C2CCNCC2)c1-c1cccc(-c2ccccc2)c1
